{
  "source": "patent US10285405B2",
  "about": "“Oil carrying particulate matter and uses thereof” (Nobactra Israel Ltd., priority 2013, dated 2019)",
  "key": {"pepper plants": {"system": "pepper plants", "assay": "Spraying the emulsions on pepper plants for phytotoxicity symptoms", "format": "in vivo"}, "The tested bacteria": {"system": "The tested bacteria", "assay": "Disc diffusion method, positive control (bacterium not specified)", "format": "cell-based", "conditions": "positive control 3% H2O2 solution, 27° C., 48 hours", "method": "Bacteria were grown in nutrient broth test tubes at 27° C. for 24 hrs. The paper discs were sterilized by autoclave in preparation for the disc diffusion method. Each bacteria ([…]), was placed on Nutrient agar (NA) plates and allowed to dry for 3-5 minutes. The paper discs were saturated in 100% concentration of the oregano essential oil (20 ul), and then placed onto each NA plate freshly coated with bacteria. The positive control used was 3% H2O2 solution and the negative control was DI water. The plates were incubated at 27° C. for 48 hours. The zone of inhibition was measured by standard ruler."}, "[1]": {"conditions": "plants sprayed with emulsion of 25% oregano oil with 5% sesame oil made with the emulsifier, data not shown"}},
  "data": [
    {"compound": "CCCCCCCCCCCCCCCCCC(=O)[O-].[Na+]", "note": "[sodium stearate, Sodium Stearate]", "values": [
      {"measurement": "Phytotoxicity on pepper plants", "setting": "pepper plants; [1]", "value": "very vital"}
    ]},
    {"compound": "CCCCCCCCCCCCOS(=O)(=O)[O-].[Na+]", "note": "[SDS]", "values": [
      {"measurement": "Phytotoxicity on pepper plants", "setting": "pepper plants; in vivo", "value": "phytotoxicity"}
    ]},
    {"compound": "CCCCCCCC/C=C\\CCCCCCCC(=O)OCCOCC(OCCO)C1OCC(OCCO)C1OCCO", "note": "(centres unmarked) [Tween 80]", "values": [
      {"measurement": "Phytotoxicity on pepper plants", "setting": "pepper plants; [1]", "value": "phytotoxicity"}
    ]},
    {"compound": "Triton X100", "values": [
      {"measurement": "Phytotoxicity on pepper plants", "setting": "pepper plants; [1]", "value": "phytotoxicity"}
    ]},
    {"compound": "OO", "note": "[P. control, H2O2]", "values": [
      {"measurement": "Inhibition zone (mm)", "setting": "The tested bacteria", "value": 8, "unit": "mm"}
    ]}
  ]
}
